According to patent publication US8088801B2, “Aryloazol-2-yl cyanoethylamino compounds, method of making and method of using thereof” (Merial Limited, priority 2007, dated 2012):

Legend:
Haemonchus contortus [1] = assay: Method A: screening against Haemonchus contortus, L1 larvae in microtitre plate; conditions: 96 h, 4 days assessment, read-out: motility inhibition; for inhibition at 0.0025 ppm: test concentration 0.0025 ppm; for inhibition at 0.01 ppm: test concentration 0.01 ppm
Text: Method A: Screening Method to Test Activity of Compounds Against Haemonchus contortus.

Haemonchus contortus [2] = assay: Method B: Haemonchus contortus in vivo in Mongolian gerbil, oral gavage; design: species or system Mongolian gerbil (Meriones unguiculatus); conditions: 72 h, Mongolian gerbils, read-out: reduction in nematode infestation; for inhibition in vivo at 100 mg/kg: necropsy 3 days after treatment
Experimental: Method B: Screening Method to Test Activity of Compounds Against Haemonchus contortus In Vivo in Mongolian Gerbil (Meriones unguiculatus).
Mongolian gerbils, at least five weeks old, were immunosuppressed and artificially infected with ca. 1000 ensheathed Haemonchus contortus third instar larvae. Six days after infection, the Mongolian gerbils were treated by oral gavage with the test compounds, dissolved in a mixture of 2 parts DMSO and 1 part polyethylene glycol (PEG400), at doses of 100 mg/kg and dissolved in pure polyethylene glycol (PEG400) at doses of 10 and 1 mg/kg. Jirds treated only with the placebo (2 parts DMSO and 1 part PEG400 or pure PEG400) served as controls. On day 9 (3 days after treatment) the jirds were euthanized and necropsied for recovery of parasites from the stomach. Efficacy was calculated as the average % reduction in the number of worms in each test group compared with the average number of worms from the control group. […] Compound numbers 1.001, 1.008, 1.012, 1.013 and 1.014 provided at least 95% reduction in nematode infestation in Mongolian gerbils treated by oral gavage with test article at a dose of 100 mg/kg. Compound numbers 1.012, 1.033, 1.064, 2.008, 2.037, 2.038, 2.040, 2.041, 3.001 provided at least 95% reduction in nematode infestation at a dose of 10 mg/kg. Compound numbers 1.094, 2.048, 3.001, 3.007 and 3.009, provided at least 95% reduction in nematode infestation at a dose of 1 mg/kg. Compound numbers 3.005, 3.006, 3.011, 3.012, 3.017 and 3.019, provided at least 95% reduction in nematode infestation at a dose of 0.5 mg/kg.

[3] = tested on: Trichostrongylus colubriformis; assay: Method D: screening against Trichostrongylus colubriformis, L1 larvae in microtitre plate; conditions: 96 h, 4 days assessment, read-out: motility inhibition; for inhibition at 0.0025 ppm: test concentration 0.0025 ppm; for inhibition at 0.01 ppm: test concentration 0.01 ppm
Experimental: Method D: Screening Method to Test Activity of Compounds Against Trichostrongylus colubriformis.
Twenty L1 Trichostrongylus colubriformis larvae were added to wells of a microtitre plate containing a nutrient medium and the test compound in DMSO. The microtitre plate was then held at 27° C. where the L1 larvae were allowed to develop. An analysis was conducted at 4 days to determine successful development to the L3 stage. Larvae exposed to DMSO and no test compound served as controls. Compounds numbers 1.008, 1.014, 1.042, 1.047, 1.048, 1.073, 2.001, 2.003 and 2.020, gave at least 90% motility inhibition at a test concentration of 0.15 ppm at the 4 days assessment. Compounds numbers 1.001, 1.003, 1.007, 1.011, 1.037, 1.038, 1.043, 1.056, 1.066, 1.070, 1.071, 2.012 and 2.016, gave at least 90% motility inhibition at a test concentration of 0.04 ppm at the 4 days assessment. Compounds numbers 1.012, 1.020, 1.021, 1.033, 1.034, 1.039, 1.064, 1.065, 2.008, 2.009 and 3.005 gave at least 90% motility inhibition at a test concentration of 0.01 ppm at the 4 days assessment. Compounds numbers 1.094, 2.040, 2.048, 2.049, 3.006, 3.009, 3.011 and 3.012 gave at least 90% motility inhibition at a test concentration of 0.0025 ppm at the 4 days assessment.

[4] = tested on: Microfilaria of Dirofilaria immitis; assay: Method F: microfilaria of Dirofilaria immitis in microtitre plate; conditions: test concentration 50 ppm, assessment at 24 hours, read-out: motility inhibition
Experimental: Method F: Screening Method to Test Activity of Compounds Against Microfilaria of Dirofilaria immitis.
Four hundred to six hundred microfilaria of Dirofilaria immitis were added to wells of a microtitre plate containing buffer and the test compound in DMSO. The microtitre plate was then held at 37° C. in an environment containing 5% CO2. An assessment was conducted at 24 hours to determine survival of the microfilaria. Microfilaria exposed to DMSO and no test compound served as controls. Compounds numbers 1.003, 1.012, 1.013, 1.064, 1.086, 1.087, 1.090, 1.094, 2.043, 2.046, 2.047, 2.048, 2.049, 3.005, 3.006, 3.009, 3.011, 3.012, 3.017, 3.019 and 3.023 gave at least 90% motility inhibition at a test concentration of 50 ppm.

Row | Compound | inhibition at 0.0025 ppm (Haemonchus contortus [1]) | inhibition at 0.0025 ppm [3] | inhibition at 50 ppm [4] | also measured
1 | Cc1c(Br)cnc2cn(CC(C)(C#N)NC(=O)c3ccc(OC(F)(F)F)cc3)nc12 (stereo not shown) [Compound 3.009, N-[2-(6-Bromo-7-methyl-2H-pyrazolo[4,3-b]pyridin-2-yl)-1-cyano-1-methylethyl]-4-trifluoromethoxybenzamide] | ≥ 90% | ≥ 90% | ≥ 90% | inhibition in vivo at 1 mg/kg (Haemonchus contortus [2]): ≥ 95%
2 | CC(C#N)(Cn1nc2cc(Cl)cnc2c1Br)NC(=O)c1ccc(OC(F)(F)F)cc1 (stereo not shown) [Compound 3.019, N-[2-(3-Bromo-6-chloro-2H-pyrazolo[4,3-b]pyridin-2-yl)-1-cyano-1-methylethyl]-4-trifluoromethoxybenzamide] |  |  | ≥ 90% | inhibition at 0.04 ppm (Haemonchus contortus [1]; test concentration 0.04 ppm): ≥ 90%; inhibition in vivo at 0.5 mg/kg (Haemonchus contortus [2]): ≥ 95%
3 | CC(C#N)(Cn1cc2c(Cl)cc(Cl)c(Cl)c2n1)NC(=O)c1ccc(OC(F)(F)F)cc1 (stereo not shown) [Compound 2.048, N-[1-Cyano-1-methyl-2-(4,6,7-trichloro-2H-indazol-2-yl)ethyl]-4-trifluoromethoxybenzamide] | ≥ 90% | ≥ 90% | ≥ 90% | inhibition in vivo at 1 mg/kg (Haemonchus contortus [2]): ≥ 95%
4 | CC(C#N)(Cn1nc2cc(Cl)cnc2c1Cl)NC(=O)c1ccc(OC(F)(F)F)cc1 (stereo not shown) [Compound 3.017, N-[1-Cyano-2-(3,6-dichloro-2H-pyrazolo[4,3-b]pyridin-2-yl)-1-methylethyl]-4-trifluoromethoxybenzamide] |  |  | ≥ 90% | inhibition at 0.01 ppm (Haemonchus contortus [1]): ≥ 90%; inhibition in vivo at 0.5 mg/kg (Haemonchus contortus [2]): ≥ 95%
5 | CC(C#N)(Cn1cc2c(Cl)cc(Cl)cc2n1)NC(=O)c1ccc(OC(F)(F)F)cc1 (stereo not shown) [Compound 2.040, N-[1-Cyano-2-(4,6-dichloro-2H-indazol-2-yl)-1-methylethyl]-4-trifluoromethoxybenzamide] | ≥ 90% | ≥ 90% |  | inhibition in vivo at 10 mg/kg (Haemonchus contortus [2]): ≥ 95%
6 | Cc1cc(Cl)cc2nn(CC(C)(C#N)NC(=O)c3ccc(OC(F)(F)F)cc3)nc12 (stereo not shown) [Compound 1.033, N-[−2-(6-Chloro-4-methyl-2H-benzotriazol-2-yl)-1-cyano-1-methylethyl]-4-trifluoromethoxybenzamide] |  |  |  | inhibition at 0.01 ppm (Haemonchus contortus [1]): ≥ 90%; inhibition in vivo at 10 mg/kg (Haemonchus contortus [2]): ≥ 95%; inhibition at 0.01 ppm [3]: ≥ 90%
7 | CC(C#N)(Cn1nc2cc(C(F)(F)F)cc(Cl)c2n1)NC(=O)c1ccc(OC(F)(F)F)cc1 (stereo not shown) [Compound 1.014, N-[2-(4-Chloro-6-trifluoromethyl-2H-benzotriazol-2-yl)-1-cyano-1-methylethyl]-4-trifluoromethoxybenzamide] |  |  |  | inhibition at 0.15 ppm (Haemonchus contortus [1]; test concentration 0.15 ppm): ≥ 90%; inhibition in vivo at 100 mg/kg (Haemonchus contortus [2]): ≥ 95%; inhibition at 0.15 ppm ([3]; test concentration 0.15 ppm): ≥ 90%
8 | CC(C#N)(Cn1nc2c(Cl)cc(Cl)c(Br)c2n1)NC(=O)c1ccc(OC(F)(F)F)cc1 (stereo not shown) [Compound 1.086, N-[2-(4-Bromo-5,7-dichloro-2H-benzotriazol-2-yl)-1-cyano-1-methylethyl]-4-trifluoromethoxybenzamide] | ≥ 90% |  | ≥ 90% | 
9 | CC(C#N)(Cn1cc2ncc(Cl)cc2n1)NC(=O)c1ccc(OC(F)(F)F)cc1 (stereo not shown) [Compound 3.005, N-[2-(6-Chloro-2H-pyrazolo[4,3-b]pyridin-2-yl)-1-cyano-1-methylethyl]-4-trifluoromethoxybenzamide] |  |  | ≥ 90% | inhibition at 0.01 ppm (Haemonchus contortus [1]): ≥ 90%; inhibition in vivo at 0.5 mg/kg (Haemonchus contortus [2]): ≥ 95%; inhibition at 0.01 ppm [3]: ≥ 90%
10 | CC(C#N)(Cn1nc2cc(Cl)cc(Cl)c2n1)NC(=O)c1ccc(OC(F)(F)F)cc1 (stereo not shown) [Compound 1.012, N-[1-Cyano-2-(4,6-dichloro-2H-benzotriazol-2-yl)-1-methylethyl]-4-trifluoromethoxybenzamide] |  |  | ≥ 90% | inhibition at 0.01 ppm (Haemonchus contortus [1]): ≥ 90%; inhibition in vivo at 10 mg/kg (Haemonchus contortus [2]): ≥ 95%; inhibition in vivo at 100 mg/kg (Haemonchus contortus [2]): ≥ 95%; inhibition at 0.01 ppm [3]: ≥ 90%
11 | Cc1cc(Br)c(F)c2nn(CC(C)(C#N)NC(=O)c3ccc(OC(F)(F)F)cc3)nc12 (stereo not shown) [Compound 1.094, N-[2-(5-bromo-4-fluoro-7-methyl-2H-benzotriazol-2-yl)-1-cyano-1-methylethyl]-4-trifluoromethoxybenzamide] | ≥ 90% | ≥ 90% | ≥ 90% | inhibition in vivo at 1 mg/kg (Haemonchus contortus [2]): ≥ 95%
12 | CC(C#N)(Cn1nc2c(Cl)cc(Cl)c(F)c2n1)NC(=O)c1ccc(OC(F)(F)F)cc1 (stereo not shown) [Compound 1.090, N-[1-Cyano-2-(5,7-dichloro-4-fluoro-2H-benzotriazol-2-yl)-1-methylethyl]-4-trifluoromethoxybenzamide] | ≥ 90% |  | ≥ 90% | 
13 | CC(C#N)(Cn1nc2c(Cl)cc(Cl)c(Cl)c2n1)NC(=O)c1ccc(OC(F)(F)F)cc1 (stereo not shown) [Compound 1.064, N-[1-Cyano-1-methyl-2-(4,5,7-trichloro-2H-benzotriazol-2-yl)-ethyl]-4-trifluoromethoxybenzamide] | ≥ 90% |  | ≥ 90% | inhibition in vivo at 10 mg/kg (Haemonchus contortus [2]): ≥ 95%; inhibition at 0.01 ppm [3]: ≥ 90%
14 | CC(C#N)(Cn1cc2ccc(Cl)c(Br)c2n1)NC(=O)c1ccc(OC(F)(F)F)cc1 (stereo not shown) [Compound 2.043, N-[2-(7-Bromo-6-chloro-2H-indazol-2-yl)-1-cyano-1-methylethyl]-4-trifluoromethoxybenzamide] | ≥ 90% |  | ≥ 90% | 
15 | CC(C#N)(Cn1cc2ncc(Br)cc2n1)NC(=O)c1ccc(OC(F)(F)F)cc1 (stereo not shown) [Compound 3.011, N-[2-(6-Bromo-2H-pyrazolo[4,3-b]pyridin-2-yl)-1-cyano-1-methylethyl]-4-trifluoromethoxybenzamide] | ≥ 90% | ≥ 90% | ≥ 90% | inhibition in vivo at 0.5 mg/kg (Haemonchus contortus [2]): ≥ 95%
16 | CC(C#N)(Cn1nc2c(Br)c(Cl)cc(Cl)c2c1Br)NC(=O)c1ccc(OC(F)(F)F)cc1 (stereo not shown) [Compound 2.046, N-[1-Cyano-2-(3,7-dibromo-4,6-dichloro-2H-indazol-2-yl)-1-methylethyl]-4-trifluoromethoxybenzamide] | ≥ 90% |  | ≥ 90% | 
